Experimental data as given in paper PMC10796436, “Peptidyl nitroalkene inhibitors of main protease rationalized by computational and crystallographic investigations as antivirals against SARS-CoV-2” (Communications Chemistry, 2024).
Where “and” joins values, the source holds several entries; their conditions need not be identical. Identical values can stand only once.

Tests used:
[1] = molecular target: Zika Virus NS2B/NS3 (bZiPro) (Zika virus, UniProt A0A024B7W1); test: Zika virus protease inhibition, fluorometric assay; type: biochemical; conditions: 20 μM
SARS-CoV-2 M^pro [2] = molecular target: T1, SARS-CoV-2 M^pro (Severe acute respiratory syndrome coronavirus 2, UniProt P0DTD1); test: Mpro FRET inhibition, continuous fluorometric assay (Fluorolog-3), enzyme from pET21-M^pro vector; type: biochemical; conditions: read-out: Ki (μM)^b
SARS-CoV-2 M^pro [3] = molecular target: T1, SARS-CoV-2 M^pro; test: biochemical; conditions: M^pro from pMal-M^pro vector
M^pro = M^pro (Severe acute respiratory syndrome coronavirus 2, UniProt P0DTD1); test: biochemical; type: binding
SARS-CoV-2 = test: microbe, parasite or virus in culture; type: cell-based; conditions: for virus titer Mean (%): mean of Exp.1-3; for virus titer (%) of conc 0 / virus titer (pfu/ml): single experiments
[4] = molecular target: human matriptase (MT-SP1) (Homo sapiens, UniProt Q9Y5Y6); test: Matriptase inhibition, fluorometric assay; type: biochemical; conditions: 20 μM
cathepsin L (CatL) = molecular target: T2, cathepsin L (CatL) (Homo sapiens, UniProt P07711); test: Cathepsin L inhibition, fluorometric assay; type: biochemical
T2 construct: purchased Calbiochem (Merck Millipore)
T2 sequence (P07711 114-288 limits assumed): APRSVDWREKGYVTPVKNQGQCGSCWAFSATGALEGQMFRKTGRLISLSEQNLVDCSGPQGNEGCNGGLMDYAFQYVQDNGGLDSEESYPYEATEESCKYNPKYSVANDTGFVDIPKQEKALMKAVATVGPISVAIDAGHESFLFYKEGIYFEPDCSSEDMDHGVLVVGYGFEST
T2 sequence (P07711 292-333 limits assumed): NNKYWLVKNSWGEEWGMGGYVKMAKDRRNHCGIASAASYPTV

Chain of Zika Virus NS2B/NS3 (bZiPro) (A0A024B7W1 1425-1464): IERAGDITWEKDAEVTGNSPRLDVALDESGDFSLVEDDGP
Chain of Zika Virus NS2B/NS3 (bZiPro) (A0A024B7W1 1503-1680): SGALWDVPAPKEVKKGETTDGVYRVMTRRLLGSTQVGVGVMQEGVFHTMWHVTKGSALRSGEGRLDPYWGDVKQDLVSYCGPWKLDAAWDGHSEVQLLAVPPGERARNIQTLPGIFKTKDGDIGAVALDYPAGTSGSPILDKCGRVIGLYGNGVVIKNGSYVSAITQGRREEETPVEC
Chain of human matriptase (MT-SP1) (Q9Y5Y6 615-855 limits assumed, other chains not shown): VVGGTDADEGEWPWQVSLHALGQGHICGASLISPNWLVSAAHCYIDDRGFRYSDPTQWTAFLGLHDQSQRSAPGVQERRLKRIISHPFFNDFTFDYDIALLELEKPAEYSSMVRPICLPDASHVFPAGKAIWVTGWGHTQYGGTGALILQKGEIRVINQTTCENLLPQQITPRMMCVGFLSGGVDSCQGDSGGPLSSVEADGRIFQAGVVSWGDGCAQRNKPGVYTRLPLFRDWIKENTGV

## CC(C)C[C@H](NC(=O)OCc1ccccc1)C(=O)N[C@H](/C=C/[N+](=O)[O-])C[C@@H]1CCNC1=O [FGA147]
[1]
  bZiPro: n.i. (no inhibition (<10%) was observed at a concentration of 20 μM)
SARS-CoV-2 M^pro [2]
  Ki: 1.33 ± 0.05 µM
SARS-CoV-2 M^pro [3]
  Ki: 2.18 ± 0.19 µM
M^pro; 25 µM
  Tm of M^pro: 46.2 ± 0.1 °C
  change of Tm of M^pro: −3.0 ± 0.1 °C
M^pro; 25 µM, read-out: DTm (°C)
  ΔTm at 25 µM: -3 °C
M^pro; 100 μM
  Tm of M^pro: 45.0 ± 0.2 °C
  change of Tm of M^pro: −4.2 ± 0.2 °C
M^pro; 25 mM, 21.5 °C
  Fraction unfolded: 0.04278
M^pro; 25 mM, 22 °C
  Fraction unfolded: 0.07148
M^pro; 25 mM, 22.5 °C
  Fraction unfolded: 0.01751
M^pro; 25 mM, 23 °C
  Fraction unfolded: -0.05389
M^pro; 25 mM, 23.5 °C
  Fraction unfolded: -0.01968
M^pro; 25 mM, 24 °C
  Fraction unfolded: 0.09885
M^pro; 25 mM, 24.5 °C
  Fraction unfolded: 0.01751
M^pro; 25 mM, 25 °C
  Fraction unfolded: 0.01414
M^pro; 25 mM, 25.5 °C
  Fraction unfolded: -0.01034
M^pro; 25 mM, 26 °C
  Fraction unfolded: 0.01683
M^pro; 25 mM, 26.5 °C
  Fraction unfolded: 0.04278
M^pro; 25 mM, 27 °C
  Fraction unfolded: 0.07148
M^pro; 25 mM, 27.5 °C
  Fraction unfolded: -0.01421
M^pro; 25 mM, 28 °C
  Fraction unfolded: -0.05389
M^pro; 25 mM, 28.5 °C
  Fraction unfolded: -0.01968
M^pro; 25 mM, 29 °C
  Fraction unfolded: 0.09885
M^pro; 25 mM, 29.5 °C
  Fraction unfolded: 0.01751
M^pro; 25 mM, 30 °C
  Fraction unfolded: -0.01678
M^pro; 25 mM, 30.5 °C
  Fraction unfolded: 0.01948
M^pro; 25 mM, 31 °C
  Fraction unfolded: 0.07312
M^pro; 25 mM, 31.5 °C
  Fraction unfolded: 0.01304
M^pro; 25 mM, 32 °C
  Fraction unfolded: 0.01813
M^pro; 25 mM, 66.5 °C
  Fraction unfolded: 1.064
M^pro; 25 mM, 67 °C
  Fraction unfolded: 1.093
M^pro; 25 mM, 67.5 °C
  Fraction unfolded: 1.004
M^pro; 25 mM, 68 °C
  Fraction unfolded: 1.064
M^pro; 25 mM, 68.5 °C
  Fraction unfolded: 0.9281
M^pro; 25 mM, 69 °C
  Fraction unfolded: 1.033
M^pro; 25 mM, 69.5 °C
  Fraction unfolded: 0.9909
M^pro; 25 mM, 70 °C
  Fraction unfolded: 0.9575
M^pro; 25 mM, 70.5 °C
  Fraction unfolded: 1.011
M^pro; 25 mM, 71 °C
  Fraction unfolded: 1.05
M^pro; 25 mM, 71.5 °C
  Fraction unfolded: 1.061
M^pro; 25 mM, 72 °C
  Fraction unfolded: 0.9314
M^pro; 25 mM, 72.5 °C
  Fraction unfolded: 1.024
M^pro; 25 mM, 73 °C
  Fraction unfolded: 1.027
M^pro; 25 mM, 73.5 °C
  Fraction unfolded: 1.08
M^pro; 25 mM, 74 °C
  Fraction unfolded: 1
M^pro; 25 mM, 74.5 °C
  Fraction unfolded: 0.9793
M^pro; 25 mM, 75 °C
  Fraction unfolded: 0.8934
M^pro; 25 mM, 75.5 °C
  Fraction unfolded: 0.9799
M^pro; 25 mM, 76 °C
  Fraction unfolded: 1.027
M^pro; 25 mM, 76.5 °C
  Fraction unfolded: 0.9678
M^pro; 25 mM, 77 °C
  Fraction unfolded: 0.9735
M^pro; 25 mM, 77.5 °C
  Fraction unfolded: 0.9321
M^pro; 25 mM, 78 °C
  Fraction unfolded: 1.0047
M^pro; 25 mM, 78.5 °C
  Fraction unfolded: 1.022
M^pro; 25 mM, 79 °C
  Fraction unfolded: 0.9456
M^pro; 25 mM, 79.5 °C
  Fraction unfolded: 1.012
M^pro; 25 mM, 80 °C
  Fraction unfolded: 0.9456
M^pro; 100 mM, 21.5 °C
  Fraction unfolded: -0.02084
M^pro; 100 mM, 22 °C
  Fraction unfolded: -0.00506
M^pro; 100 mM, 22.5 °C
  Fraction unfolded: 0.01094
M^pro; 100 mM, 23 °C
  Fraction unfolded: 0.02167
M^pro; 100 mM, 23.5 °C
  Fraction unfolded: -0.03337
M^pro; 100 mM, 24 °C
  Fraction unfolded: -0.04925
M^pro; 100 mM, 24.5 °C
  Fraction unfolded: -0.01302
M^pro; 100 mM, 25 °C
  Fraction unfolded: 0.0174
M^pro; 100 mM, 25.5 °C
  Fraction unfolded: 0.07455
M^pro; 100 mM, 26 °C
  Fraction unfolded: -0.07318
M^pro; 100 mM, 26.5 °C
  Fraction unfolded: 0.02179
M^pro; 100 mM, 27 °C
  Fraction unfolded: -0.00134
M^pro; 100 mM, 27.5 °C
  Fraction unfolded: 0.02966
M^pro; 100 mM, 28 °C
  Fraction unfolded: -0.07997
M^pro; 100 mM, 28.5 °C
  Fraction unfolded: -0.01931
M^pro; 100 mM, 29 °C
  Fraction unfolded: 0.05111
M^pro; 100 mM, 29.5 °C
  Fraction unfolded: 0.02685
M^pro; 100 mM, 30 °C
  Fraction unfolded: 0.06732
M^pro; 100 mM, 30.5 °C
  Fraction unfolded: -0.02735
M^pro; 100 mM, 31 °C
  Fraction unfolded: 0.01656
M^pro; 100 mM, 31.5 °C
  Fraction unfolded: -0.02084
M^pro; 100 mM, 32 °C
  Fraction unfolded: -0.00506
M^pro; 100 mM, 66.5 °C
  Fraction unfolded: 1.07
M^pro; 100 mM, 67 °C
  Fraction unfolded: 1.013
M^pro; 100 mM, 67.5 °C
  Fraction unfolded: 0.9992
M^pro; 100 mM, 68 °C
  Fraction unfolded: 1.02
M^pro; 100 mM, 68.5 °C
  Fraction unfolded: 1.071
M^pro; 100 mM, 69 °C
  Fraction unfolded: 0.9861
M^pro; 100 mM, 69.5 °C
  Fraction unfolded: 1.008
M^pro; 100 mM, 70 °C
  Fraction unfolded: 1.064
M^pro; 100 mM, 70.5 °C
  Fraction unfolded: 0.8899
M^pro; 100 mM, 71 °C
  Fraction unfolded: 1.057
M^pro; 100 mM, 71.5 °C
  Fraction unfolded: 1.048
M^pro; 100 mM, 72 °C
  Fraction unfolded: 1.1085
M^pro; 100 mM, 72.5 °C
  Fraction unfolded: 1.099
M^pro; 100 mM, 73 °C
  Fraction unfolded: 0.9672
M^pro; 100 mM, 73.5 °C
  Fraction unfolded: 1.047
M^pro; 100 mM, 74 °C
  Fraction unfolded: 0.9312
M^pro; 100 mM, 74.5 °C
  Fraction unfolded: 1.062
M^pro; 100 mM, 75 °C
  Fraction unfolded: 1.063
M^pro; 100 mM, 75.5 °C
  Fraction unfolded: 1.018
M^pro; 100 mM, 76 °C
  Fraction unfolded: 0.9202
M^pro; 100 mM, 76.5 °C
  Fraction unfolded: 1.013
M^pro; 100 mM, 77 °C
  Fraction unfolded: 0.9957
M^pro; 100 mM, 77.5 °C
  Fraction unfolded: 1.0714
M^pro; 100 mM, 78 °C
  Fraction unfolded: 0.8845
M^pro; 100 mM, 78.5 °C
  Fraction unfolded: 0.9237
M^pro; 100 mM, 79 °C
  Fraction unfolded: 1.0367
M^pro; 100 mM, 79.5 °C
  Fraction unfolded: 0.9498
M^pro; 100 mM, 80 °C
  Fraction unfolded: 0.9799
SARS-CoV-2; Severe acute respiratory syndrome coronavirus 2, 24 h, Huh-7-ACE2, 24h p.t., MOI=0.1
  EC50: 1.9 µM
SARS-CoV-2; conc 0.1
  virus titer Mean (%): 153.333%
  virus titer (%) of conc 0: 160% and 180% and 120%
  virus titer (pfu/ml): 1600000 pfu/ml and 1800000 pfu/ml and 2400000 pfu/ml
SARS-CoV-2; conc 0.5
  virus titer Mean (%): 83.3333%
  virus titer (pfu/ml): 1000000 pfu/ml and 1200000 pfu/ml and 600000 pfu/ml
SARS-CoV-2; conc 1
  virus titer Mean (%): 85%
SARS-CoV-2; conc 5
  virus titer Mean (%): 0.5017%
  virus titer (%) of conc 0: 1% and 0.365% and 0.14%
SARS-CoV-2; conc 10
  virus titer Mean (%): 0.08%
  virus titer (%) of conc 0: 0.04% and 0.15% and 0.05%
SARS-CoV-2; conc 50
  virus titer Mean (%): 0.025%
  virus titer (%) of conc 0: 0.06% and 0.012% and 0.003%
SARS-CoV-2; conc 100
  virus titer Mean (%): 0.01767%
  virus titer (%) of conc 0: 0.02% and 0.026% and 0.007%
  virus titer (pfu/ml): 200 pfu/ml and 260 pfu/ml and 140 pfu/ml
[4]
  MT-SP1: n.i. (no inhibition (<10%) was observed at a concentration of 20 μM)
Cathepsin L (CatL)
  Ki: 1.99 ± 0.107 µM
